Key:
HuVec Cells [1] = assay: GFP plasmid transfection with DOTMA/DOPE plus plant virus movement protein derived peptides (Example 2); assay type: cell-based; conditions: 42 hours
Procedure: (§1) Cells were plated to so that on the day of transfection the cells were 70% confluent in 96 well tissue culture plates. A DOMTA/DOPE Lipid solution (1:1 molar ratio) at 2 mg/mL in water were mixed with an equal volume of plant virus movement protein derived peptides that had the nucleic acid binding moiety RRRRRRRRRRRR (SEQ ID NO:109) or KKKKKKKKKKKKKKKK (SEQ ID NO: 102) covalently linked to the N-terminus, or C-terminus of each peptide during peptide synthesis. Peptides were at 2 mg/mL in water. The DOTMA/DOPE and the plant virus movement peptide solution the was diluted 1 to 1 (v/v) in water. DOMTA/DOPE/PEPTIDE solutions were added to 0.1 mL of a plasmid DNA solution (EF1Alpha eGFP plasmid) at 10 μg/mL in OptiMEM.
(§2) All solutions were at room temperature. A volume of 0.2 mL of a 10 μg/mL solution of DNA was aliquoted into each well of a non-tissue cultured treated plate. 1-6 μL of transfection reagents were added to DNA solutions respectively. The transfection reagent and DNA solution was mixed by pipetting up and down twice. Transfection complexes were formed for 10 minutes. After 10 minutes, 0.01 or 0.02 mL of the transfection complex was added to cells. HuVEC, HeLa, human adult keratinocytes, human primary adult fibroblast, and A549 cells all respectively received 0.01 mL of the transfection complex. Human skeletal muscle cells, mouse C2C12 cells, and Jurkat, cells received 0.02 mL of the transfection complex. Cells were incubated for 42 hours at 37° C. at 5% CO2. Plates were read on a fluorescent plate reader. Cells were also examined visually under a microscope to assess the extent of transfection (in terms of the percent of cells transfected) with a fluorescent microscope. Other modes of analysis, for example quantification with B-galactosidase or luciferase reports plasmids can also be used.

HeLa Cells [2] = assay: as above; assay type: cell-based; conditions: 1-6 μL of transfection reagents
Procedure: as §1, §2

[3] = tested on: Human Primary Fibroblast Cells; assay: as above; assay type: cell-based; conditions: 42 hours
Procedure: as §1, §2

C2C12 Cells = assay: GFP plasmid transfection with DOTMA/DOPE plus surface ligand peptide, fluorescent plate reader (Example 1); assay type: cell-based, mouse; conditions: DOTMA/DOPE + peptide linked to R12 or K16; EF1Alpha eGFP plasmid; 42 hours
In short: (§3)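 DOTMA/DOPE (1:1 molar) plus peptide bearing a poly-Arg or poly-Lys tag was complexed 10 min with EF1alpha eGFP plasmid in OptiMEM, then added to 70%-confluent cells (0.01 mL fibroblasts; 0.02 mL C2C12, Jurkat). After 42 h at 37 °C, GFP was read by plate reader and compared with DOTMA without ligand.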

HuVec Cells [4] = assay: as above; assay type: cell-based; conditions: DOTMA/DOPE + peptide linked to R12 or K16; EF1Alpha eGFP plasmid; 42 hours
In short: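 HuVEC cells in 96 well plates at 70% confluence were transfected with EF1Alpha eGFP plasmid using a 1:1 molar DOTMA/DOPE lipid mixed with a surface ligand peptide carrying a covalently attached nucleic acid binding moiety. Complexes formed for 10 minutes, 0.01 mL went to each well, cells were incubated 42 hours at 37° C., and fluorescence was read on a plate reader.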

NL-1 iPS Cells = assay: as above; assay type: cell-based; conditions: DOTMA/DOPE + peptide linked to R12 or K16; EF1Alpha eGFP plasmid; 42 hours
HeLa Cells [5] = assay: as above; assay type: cell-based; conditions: DOTMA/DOPE + peptide linked to R12 or K16; EF1Alpha eGFP plasmid; 42 hours
Jurkat Cells = assay: as above; assay type: cell-based; conditions: DOTMA/DOPE + peptide linked to R12 or K16; EF1Alpha eGFP plasmid; 42 hours
In short: as §3

Human Fibroblast Cells = assay: as above; assay type: cell-based; conditions: DOTMA/DOPE + peptide linked to R12 or K16; EF1Alpha eGFP plasmid; 42 hours
In short: as §3

some examined cell types = assay: Summary of Example 1: transfection expression and % cells transfected over the no peptide control; assay type: cell-based; conditions: on some examined cell types
In short: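 Cells at 70% confluence received DNA complexes of EF1Alpha eGFP plasmid with DOTMA/DOPE (1:1) plus oligo-Arg- or oligo-Lys-tagged peptide ligands, formed 10 min at room temperature. After 42 h at 37 °C, 5% CO2, GFP read by plate reader and % transfected cells judged microscopically, relative to lipid without peptide.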

HeLa Cells [6] = assay: GFP transfection with DOTMA/SEQ ID NO: 72 (fusogenic peptide)/peptide compared with Lipofectamine 2000; assay type: cell-based
In short: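 DOTMA/DOPE (1:1 molar) lipid mixed with polyarginine- or polylysine-tagged cell-surface-ligand peptide, complexed 10 min with EF1alpha eGFP plasmid at 10 μg/mL in OptiMEM, fusogenic peptide at 0.1 mg/mL final; HeLa cells ~70% confluent given 0.01 mL complex. GFP read by fluorescence plate reader and microscopy (% cells transfected) after 42 h at 37° C; Lipofectamine 2000 as comparator.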

[7] = value column 1 of 6, head not given, 1 µL transfection reagent
[8] = value column 3 of 6, head not given, 3 µL transfection reagent
[9] = value column 4 of 6, head not given, 4 µL transfection reagent
[10] = 0.1 μL of DOTMA/SEQ ID NO: 72/Peptide in well of a 96 well plate
[11] = 0.2 μL of DOTMA/SEQ ID NO: 72/Peptide in well of a 96 well plate
[12] = 0.3 μL of DOTMA/SEQ ID NO: 72/Peptide in well of a 96 well plate
[13] = 0.4 μL of DOTMA/SEQ ID NO: 72/Peptide in well of a 96 well plate

Row | Compound | Relative Fluorescence of Transfection of HuVEC Cells (HuVec Cells [1]; Transfection Agent 1 μl) | Relative Fluorescence of Transfection of HuVEC Cells (HuVec Cells [1]; Transfection Agent 1.5 μl) | Relative Fluorescence of Transfection of HuVEC Cells (HuVec Cells [1]; Transfection Agent 2 μl) | Relative Fluorescence of Transfection of HuVEC Cells (HuVec Cells [1]; Transfection Agent 3 μl) | Relative Fluorescence of Transfection of Hela Cells (HeLa Cells [2]; 2 µL transfection reagent) | Relative Fluorescence of Transfection of Hela Cells (HeLa Cells [2]; 5 µL transfection reagent) | Relative Fluorescence of Transfection of Hela Cells (HeLa Cells [2]; [7]) | Relative Fluorescence of Transfection of Hela Cells (HeLa Cells [2]; [8]) | Relative Fluorescence of Transfection of Hela Cells (HeLa Cells [2]; [9]) | Relative Fluorescence of Transfection of C2C12 Cells (RF) (C2C12 Cells) | Relative Fluorescence of Transfection of HuVec Cells (RF) (HuVec Cells [4]) | Relative Fluorescence of Transfection of NL-1 iPS Cells (RF) (NL-1 iPS Cells) | Relative Fluorescence of Transfection of HeLa Cells (RF) (HeLa Cells [5]) | Relative Fluorescence of Transfection of Jurkat Cells (RF) (Jurkat Cells) | Relative Fluorescence of Transfection of Human Fibroblast Cells (RF) (Human Fibroblast Cells) | transfection expression and % cells transfected over the no peptide control (some examined cell types) | Relative Fluorescence DOTMA/SEQ ID NO: 72/Peptide, HeLa Cells (RF) (HeLa Cells [6]; [10]) | Relative Fluorescence DOTMA/SEQ ID NO: 72/Peptide, HeLa Cells (RF) (HeLa Cells [6]; [11]) | Relative Fluorescence DOTMA/SEQ ID NO: 72/Peptide, HeLa Cells (RF) (HeLa Cells [6]; [12]) | Relative Fluorescence DOTMA/SEQ ID NO: 72/Peptide, HeLa Cells (RF) (HeLa Cells [6]; [13]) | also measured
1 | 543 (RRRRRRRRRRRRVDFSHVDYGKWERKPIRCASMSRLGLRG) [compound 543] | 26622 Rf | 36742 Rf | 42802 Rf | 40584 Rf | 42502 | 13793 | 12174 | 38779 | 28451 | – | – | – | – | – | – | – | – | – | – | – | Relative Fluorescence of Transfection of HuVEC Cells (HuVec Cells [1]; Transfection Agent 4 μl): 32754 Rf; Relative Fluorescence of Transfection of HuVEC Cells (HuVec Cells [1]; Transfection Agent 6 μl): 25492 Rf; Relative Fluorescence of Transfection of Human Primary Fibroblast Cells ([3]; Transfection Agent 1 μl): 30416 Rf; Relative Fluorescence of Transfection of Human Primary Fibroblast Cells ([3]; Transfection Agent 1.5 μl): 45401 Rf; Relative Fluorescence of Transfection of Human Primary Fibroblast Cells ([3]; Transfection Agent 2 μl): 39786 Rf; Relative Fluorescence of Transfection of Human Primary Fibroblast Cells ([3]; Transfection Agent 3 μl): 33091 Rf; Relative Fluorescence of Transfection of Human Primary Fibroblast Cells ([3]; Transfection Agent 4 μl): 28648 Rf; Relative Fluorescence of Transfection of Human Primary Fibroblast Cells ([3]; Transfection Agent 6 μl): 28698 Rf
2 | 544 (GVKRSYGAARGDDRRRPNVVAPYKAWRRRRRRRRRRRR) [compound 544] | 25788 Rf | 28622 Rf | 31245 Rf | 34718 Rf | 19151 | 12759 | 10683 | 19877 | 16908 | – | – | – | – | – | – | – | – | – | – | – | Relative Fluorescence of Transfection of HuVEC Cells (HuVec Cells [1]; Transfection Agent 4 μl): 31159 Rf; Relative Fluorescence of Transfection of HuVEC Cells (HuVec Cells [1]; Transfection Agent 6 μl): 28639 Rf; Relative Fluorescence of Transfection of Human Primary Fibroblast Cells ([3]; Transfection Agent 1 μl): 31368 Rf; Relative Fluorescence of Transfection of Human Primary Fibroblast Cells ([3]; Transfection Agent 1.5 μl): 39311 Rf; Relative Fluorescence of Transfection of Human Primary Fibroblast Cells ([3]; Transfection Agent 2 μl): 37634 Rf; Relative Fluorescence of Transfection of Human Primary Fibroblast Cells ([3]; Transfection Agent 3 μl): 32892 Rf; Relative Fluorescence of Transfection of Human Primary Fibroblast Cells ([3]; Transfection Agent 4 μl): 31428 Rf; Relative Fluorescence of Transfection of Human Primary Fibroblast Cells ([3]; Transfection Agent 6 μl): 28367 Rf
3 | 546 (RTGVKRSYGAARGDDRRRPNVVRRRRRRRRRRRR) [compound 546] | 25990 Rf | 32762 Rf | 37899 Rf | 35528 Rf | 15022 | 8117 | 15190 | 12772 | 11535 | – | – | – | – | – | – | – | – | – | – | – | Relative Fluorescence of Transfection of HuVEC Cells (HuVec Cells [1]; Transfection Agent 4 μl): 31614 Rf; Relative Fluorescence of Transfection of HuVEC Cells (HuVec Cells [1]; Transfection Agent 6 μl): 27690 Rf; Relative Fluorescence of Transfection of Human Primary Fibroblast Cells ([3]; Transfection Agent 1 μl): 31980 Rf; Relative Fluorescence of Transfection of Human Primary Fibroblast Cells ([3]; Transfection Agent 1.5 μl): 39259 Rf; Relative Fluorescence of Transfection of Human Primary Fibroblast Cells ([3]; Transfection Agent 2 μl): 41747 Rf; Relative Fluorescence of Transfection of Human Primary Fibroblast Cells ([3]; Transfection Agent 3 μl): 35020 Rf; Relative Fluorescence of Transfection of Human Primary Fibroblast Cells ([3]; Transfection Agent 4 μl): 32220 Rf; Relative Fluorescence of Transfection of Human Primary Fibroblast Cells ([3]; Transfection Agent 6 μl): 29476 Rf
4 | CCCCCCCC/C=C\CCCCCCCCOCC(C[N+](C)(C)C)OCCCCCCCC/C=C\CCCCCCCC.[Cl-] (stereo not shown) [DOTMA, N-[1-(2,3-dioleyloxy)propyl]-N,N,N-trimethylammonium chloride, reference compound] | – | – | – | – | 4782 | 9694 | 4424 | 5377 | 6992 | 1289 | 12230 | 8965 | 7551 | 9084 | 3397 | – | – | – | – | – | –
5 | 343 (LFSHAVSSNG) [compound 343] | – | – | – | – | – | – | – | – | – | 3218 | 16239 | 21726 | 5910 | 23499 | 4590 | increased transfection expression and the % cells transfected | 6961 | 8626 | 8577 | 8160 | –
6 | 367 (TDIPPCPHGWISLWK) [compound 367] | – | – | – | – | – | – | – | – | – | 16207 | 13354 | 17545 | 39008 | 4365 | 10036 | increased transfection expression and the % cells transfected | 10427 | 21411 | 23001 | 17529 | –
7 | 326 (RLVSYSGVLFFLK) [compound 326] | – | – | – | – | – | – | – | – | – | 8553 | 4932 | 9239 | 18946 | 3018 | 3070 | increased transfection expression and the % cells transfected | 6887 | 9487 | 10330 | 9227 | –
8 | 379 (TAGSCLRKF) [compound 379] | – | – | – | – | – | – | – | – | – | 3189 | 14573 | 6894 | 27424 | 7711 | 8520 | increased transfection expression and the % cells transfected | 50018 | 47049 | 39036 | 26448 | –
